This note sets out measurements from patent publication US9718828B2 (MERCK SHARP & DOHME CORP., priority 2011, dated 2017).

pEC50: −log10 of the molar value. Counter-ions that a name gives are not always drawn. A value given as a limit tells only on which side of the number the result lay.

The first assay deals with Btk enzyme (His-Btk) (Homo sapiens (Human), UniProt Q06187). The assay is described as follows: Btk enzyme activity, IMAP fluorescence polarization assay (Assay Method A).
Btk enzyme (His-Btk), sequence (Q06187 whole entry): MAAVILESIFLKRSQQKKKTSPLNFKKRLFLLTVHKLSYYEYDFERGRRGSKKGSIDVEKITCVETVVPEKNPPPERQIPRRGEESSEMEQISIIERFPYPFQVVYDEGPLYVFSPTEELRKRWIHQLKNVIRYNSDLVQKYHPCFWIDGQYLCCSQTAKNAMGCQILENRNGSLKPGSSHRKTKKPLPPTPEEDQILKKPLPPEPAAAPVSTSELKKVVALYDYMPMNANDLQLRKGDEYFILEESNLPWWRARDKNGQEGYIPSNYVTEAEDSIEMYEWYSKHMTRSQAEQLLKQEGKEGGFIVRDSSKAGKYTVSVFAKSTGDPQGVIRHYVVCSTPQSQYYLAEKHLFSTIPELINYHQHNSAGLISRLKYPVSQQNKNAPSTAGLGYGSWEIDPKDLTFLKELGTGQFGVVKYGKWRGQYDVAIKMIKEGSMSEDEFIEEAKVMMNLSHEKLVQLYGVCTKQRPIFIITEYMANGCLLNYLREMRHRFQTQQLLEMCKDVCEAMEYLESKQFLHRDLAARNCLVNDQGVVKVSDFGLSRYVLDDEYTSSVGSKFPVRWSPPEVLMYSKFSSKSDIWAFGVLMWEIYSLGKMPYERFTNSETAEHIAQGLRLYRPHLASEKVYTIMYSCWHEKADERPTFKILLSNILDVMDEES
Settings: not given
In general terms: In fluorescence polarisation assays a small probe gives low polarisation when free and higher when bound to something large.
`CC1(C)CC(c2nc(-c3ccc(C(=O)Nc4cc(C#N)ccn4)cc3)c3c(N)nccn23)CCO1` (stereo not drawn) [Example 37, 4-(8-amino-3-(2,2-dimethyltetrahydro-2H-pyran-4-yl)imidazo[1,5-a]pyrazin-1-yl)-N-(4-cyanopyridin-2-yl)benzamide] had a pEC50 of 7.00 to 8.00.

On to `Nc1nccn2c([C@@H]3CCCN(S(=O)(=O)C4CC4)C3)nc(-c3ccc(C(=O)Nc4cc(C(F)(F)F)ccn4)cc3)c12` [Example 75, (R)-4-(8-amino-3-(1-(cyclopropylsulfonyl)piperidin-3-yl)imidazo[1,5-a]pyrazin-1-yl)-N-(4-(trifluoromethyl)pyridin-2-yl)benzamide], for which the pEC50 is over 8.00. Take `CCC(=O)N1C2CCC1C(c1nc(-c3ccc(C(=O)Nc4ccccn4)cc3)c3c(N)nccn13)C2` (stereo not drawn) [Example 147, 4-(8-amino-3-(7-propionyl-7-azabicyclo[2.2.1]heptan-2-yl)imidazo[1,5-a]pyrazin-1-yl)-N-(pyridin-2-yl)benzamide]: the pEC50 was 6.00 to 7.00. The compound `Cc1nc(-c2ccc(C(=O)Nc3cc(C(F)(F)F)ccn3)cc2)c2c(N)ncc(C(=O)NC3CCN(C)CC3)n12` [Example 295, 8-amino-3-methyl-N-(1-methylpiperidin-4-yl)-1-(4-(4-(trifluoromethyl)pyridin-2-ylcarbamoyl)phenyl)imidazo[1,5-a]pyrazine-5-carboxamide] showed a pEC50 of 6.00 to 7.00. `Nc1nccn2c([C@@H]3CCC[C@H](N)C3)nc(-c3ccc(C(=O)Nc4cc(C(F)(F)F)ccn4)cc3)c12` (relative stereo) [Example 157, 4-(8-amino-3-((cis)-3-aminocyclohexyl)imidazo[1,5-a]pyrazin-1-yl)-N-(4-(trifluoromethyl)pyridin-2-yl)benzamide]: the pEC50 is 7.00 to 8.00. As for `CN(C)C(=O)C(=O)N1CCC[C@@H](c2nc(-c3ccc(C(=O)Nc4cc(C5CC5)ccn4)cc3)c3c(N)nccn23)C1` [Example 111, (R)-4-(8-amino-3-(1-(2-(dimethylamino)-2-oxoacetyl)piperidin-3-yl)imidazo[1,5-a]pyrazin-1-yl)-N-(4-cyclopropylpyridin-2-yl)benzamide], the pEC50 is 7.00 to 8.00. In the case of `CN(C)CCCC(=O)N1CCC[C@@H](c2nc(-c3ccc(C(=O)Nc4ccccn4)cc3)c3c(N)nccn23)C1` [Example 51, (R)-4-(8-amino-3-(1-(4-(dimethylamino)butanoyl)piperi-din-3-yl)imidazo[1,5-a]pyrazin-1-yl)-N-(pyridin-2-yl)benzamide], the pEC50 is 7.00 to 8.00. The compound `CN(C)C1(C(=O)N2CCC[C@@H](c3nc(-c4ccc(C(=O)Nc5cc(C(F)(F)F)ccn5)cc4)c4c(N)nccn34)C2)CCC1` [Example 79, (R)-4-(8-amino-3-(1-(1-(dimethylamino)cyclobutane-carbonyl)piperidin-3-yl)imidazo[1,5-a]pyrazin-1-yl)-N-(4-(trifluoromethyl)pyridin-2-yl)benzamide] had a pEC50 of 7.00 to 8.00.

Compound `Nc1nccn2c([C@@H]3CCC[C@H](NC(=O)OCc4ccccc4)C3)nc(-c3ccc(C(=O)Nc4cc(C(F)(F)F)ccn4)cc3)c12` (relative stereo) [Example 154, benzyl (cis)-3-(8-amino-1-(4-(4-(trifluoromethyl)pyridin-2-ylcarbamoyl)phenyl)imidazo [1,5-a]pyrazin-3-yl)cyclohexylcarbamate] had a negative-log EC50 (pEC50) of 7.00 to 8.00. On to `COCCC(=O)N1CCC[C@@H](c2nc(-c3ccc(C(=O)Nc4cc(C#N)ccn4)cc3)c3c(N)nccn23)C1` [Example 97, (R)-4-(8-amino-3-(1-(3-methoxypropanoyl)piperidin-3-yl)imidazo[1,5-a]pyrazin-1-yl)-N-(4-cyanopyridin-2-yl)benzamide], for which the pEC50 was over 8.00.

Consider `CC(C)C(=O)N1CCC[C@@H](n2nc(-c3ccc(C(=O)Nc4cc(C(F)(F)F)ccn4)cc3)c3c(N)ncnc32)C1` [Example 279, (R)-4-(4-amino-1-(1-isobutyrylpiperidin-3-yl)-1H-pyrazolo[3,4-d]pyrimidin-3-yl)-N-(4-(trifluoromethyl)pyridin-2-yl)benzamide], for which the pEC50 was 7.00 to 8.00.

Consider `COc1cc(-c2nc([C@H]3CC[C@H](O)CC3)n3ccnc(N)c23)ccc1C(=O)Nc1ccccn1` [Example 9, 4-(8-amino-3-((trans)-4-hydroxycyclohexyl)imidazo[1,5-a]pyrazin-1-yl)-2-methoxy-N-(pyridin-2-yl)benzamide], for which the negative logarithm of the EC50 (pEC50) is 7.00 to 8.00. As for `CC(C)C(=O)N1CCC(c2nc(-c3ccc(C(=O)Nc4ccccn4)cc3)c3c(N)nccn23)CC1` [Example 129, 4-(8-amino-3-(1-isobutyrylpiperidin-4-yl)imidazo[1,5-a]pyrazin-1-yl)-N-(pyridin-2-yl)benzamide], the pEC50 is 6.00 to 7.00. `Nc1ncnc2c1c(-c1ccc(C(=O)Nc3cc(C(F)(F)F)ccn3)cc1)nn2[C@@H]1CCCN(C(=O)C(F)(F)F)C1` [Example 274, (R)-4-(4-amino-1-(1-(2,2,2-trifluoroacetyl)piperidin-3-yl)-1H-pyrazolo[3,4-d]pyrimidin-3-yl)-N-(4-(trifluoromethyl)pyridin-2-yl)benzamide] gave a pEC50 of 7.00 to 8.00. As to `CC1CCc2nc(NC(=O)c3ccc(-c4nc([C@H]5[C@@H]6COC[C@@H]65)n5ccnc(N)c45)cc3)sc2C1` (stereo partly drawn) [Example 32, 4-(8-amino-3-((1R,5S,6S)-3-oxabicyclo[3.1.0]hexan-6-yl)imidazo[1,5-a]pyrazin-1-yl)-N-(6-methyl-4,5,6,7-tetrahydrobenzo[d]thiazol-2-yl)benzamide, TFA salt], the negative-log EC50 (pEC50) was 7.00 to 8.00.

The assay is the same for the next values; noted with them: read-out: EC50 Btk activity values - Assay Method A; IMAP-FP, 60 min pre-incubation, 5 μM ATP; class 100-1000 is given as ≧100 nM-<1 μM.
Take `CCOC(=O)N1CCC[C@@H](c2nc(-c3ccc(C(=O)Nc4ccccn4)cc3)c3c(N)nccn23)C1` [Example 47, (R)-ethyl 3-(8-amino-1-(4-(pyridin-2-ylcarbamoyl)phenyl)imidazo[1,5-a]pyrazin-3-yl)piperidine-1-carboxylate]: the pEC50 is over 8.00.

Take `Nc1nccn2c1c(-c1ccc(C(=O)Nc3nc4c(s3)CCCC4)cc1)nc2[C@H]1CC[C@H](O)CC1` [Example 8, 4-(8-amino-3-((trans)-4-hydroxycyclohexyl)imidazo[1,5-a]pyrazin-1-yl)-N-(4,5,6,7-tetrahydrobenzo[d]thiazol-2-yl)benzamide]: the pEC50 is over 8.00. Turning to `CCC(=O)C(=O)N1CCC[C@@H](c2nc(-c3ccc(C(=O)Nc4cc(C5CC5)ccn4)cc3)c3c(N)nccn23)C1` [Example 114, (R)-4-(8-amino-3-(1-(2-oxobutanoyl)piperidin-3 yl)imidazo[1,5-a]pyrazin-1-yl)-N-(4-cyclopropylpyridin-2-yl)benzamide], the pEC50 is over 8.00. `CCC(=O)C(=O)N1C[C@H](c2nc(-c3ccc(C(=O)Nc4cc(C(F)(F)F)ccn4)cc3)c3c(N)nccn23)CC[C@@H]1C` (relative stereo) [Example 200, 4-(8-amino-3-((cis)-6-methyl-1-(2-oxobutanoyl)piperidin-3-yl)imidazo[1,5-a]pyrazin-1-yl)-N-(4-(trifluoromethyl)-pyridin-2-yl)benzamide, TFA salt]: the pEC50 is over 8.00. On to `COCCOCCC(=O)N1CCC[C@@H](n2nc(-c3ccc(C(=O)Nc4cc(C(F)(F)F)ccn4)cc3)c3c(N)ncnc32)C1` [Example 275, (R)-4-(4-amino-1-(1-(3-(2-methoxyethoxy)propanoyl)piperidin-3-yl)-1H-pyrazolo[3,4-d]pyrimidin-3-yl)-N-(4-(trifluoromethyl)pyridin-2-yl)benzamide], for which the pEC50 is over 8.00. The same measure, in the same setting: the value for `CC1(C(=O)N2CCC[C@@H](c3nc(-c4ccc(C(=O)Nc5cc(C(F)(F)F)ccn5)cc4)c4c(N)ncc(C(=O)O)n34)C2)COC1` [Example 300, (R)-8-amino-3-(1-(3-methyloxetane-3-carbonyl)piperidin-3-yl)-1-(4-(4-(trifluoromethyl)pyridin-2-ylcarbamoyl)phenyl)imidazo[1,5-a]pyrazine-5-carboxylic acid] was over 8.00. Regarding `C[C@H]1CC[C@@H](c2nc(-c3ccc(C(=O)Nc4ccccn4)cc3)c3c(N)nccn23)CN1C(=O)CC1CC1` (relative stereo) [Example 191, 4-(8-amino-3-((cis)-1-(2-cyclopropylacetyl)-6-methylpiperidin-3-yl)imidazo[1,5-a]pyrazin-1-yl)-N-(pyridin-2-yl)benzamide, TFA salt], the pEC50 was over 8.00. The same measure, in the same setting: next, `Nc1nccn2c1c(-c1ccc(C(=O)Nc3cc(C(F)(F)F)ccn3)cc1)nc2[C@H]1CC[C@H](O)CC1` [Example 2, 4-(8-amino-3-((trans)-4-hydroxycyclohexyl)imidazo[1,5-a]pyrazin-1-yl)-N-(4-(trifluoromethyl)pyridin-2-yl)benzamide]: over 8.00. On the same count and under the same terms, next, `CSCCC(=O)N1C[C@H](c2nc(-c3ccc(C(=O)Nc4cc(C(F)(F)F)ccn4)cc3)c3c(N)nccn23)CC[C@@H]1C` (relative stereo) [Example 195, 4-(8-amino-3-((cis)-6-methyl-1-(3-(methylthio)propanoyl)piperidin-3-yl)imidazo[1,5-a]pyrazin-1-yl)-N-(4-(trifluoromethyl)pyridin-2-yl)benzamide, TFA salt]: over 8.00; `N#Cc1ccc(C(=O)N2CCC[C@@H](c3nc(-c4ccc(C(=O)Nc5cc(C6CC6)ccn5)cc4)c4c(N)nccn34)C2)cn1` [Example 117, (R)-4-(8-amino-3-(1-(6-cyanonicotinoyl)piperidin-3-yl)imidazo[1,5-a]pyrazin-1-yl)-N-(4-cyclopropylpyridin-2-yl)benzamide .]: over 8.00. Still for that read-out and setting: the value for `Nc1nccn2c(N3CCCC(C(=O)N4CCCC(F)(F)C4)C3)nc(-c3ccc(C(=O)Nc4cc(C(F)(F)F)ccn4)cc3)c12` (stereo not drawn) [Example 243, 4-(8-amino-3-(3-(3,3-difluoropiperidine-1-carbonyl)piperidin-1-yl)imidazo[1,5-a]pyrazin-1-yl)-N-(4-(trifluoromethyl)pyridin-2-yl)benzamide, TFA salt] was over 8.00; that for `CCNC(=O)N1CCC[C@@H](c2nc(-c3ccc(C(=O)Nc4cc(C#N)ccn4)cc3)c3c(N)nccn23)C1` [Example 101, (R)-3-(8-amino-1-(4-(4-cyanopyridin-2-ylcarbamoyl)phenyl)imidazo [1,5-a]pyrazin-3-yl)-N-ethylpiperidine-1-carboxamide] was over 8.00.

What is called pEC50 is the EC50 on a negative log10 scale, so that one unit is a factor of ten.
